Test results: patent US10765114B2, “4-amino-6-(pyridyl and 2-substitutedphenyl)-picolinates and 6-amino-2-(pyridyl and 2-substitutedphenyl)-pyrimidine-4-carboxylates and their use as herbicides” (Dow AgroSciences LLC, priority 2013, dated 2020)

Key:
Assay in all cases: Post-Emergent Test III (Wheat and Barley)
ALOMY (blackgrass) = assay type: in vivo, Alopecurus myosuroides; settings: for pest or weed control at 35 g/ha: 35 g ai/ha; for pest or weed control at 70 g/ha: 70 g ai/ha; for GR50, ALOMY: effective dose for growth reduction of 50 percent; for GR50, ALOMY / GR80, ALOMY: probit analysis; for GR80, ALOMY: effective dose for growth reduction of 80 percent
Experimental: (§1) Seeds of the desired test plant species were planted in Sun Gro MetroMix® 306 planting mixture, which typically has a pH of 6.0 to 6.8 and an organic matter content of about 30 percent, in plastic pots with a surface area of 103.2 square centimeters (cm^2). When required to ensure good germination and healthy plants, a fungicide treatment and/or other chemical or physical treatment was applied. The plants were grown for 7-36 days in a greenhouse with an approximate 14 h photoperiod which was maintained at about 18° C. during the day and 17° C. during the night. Nutrients and water were added on a regular basis and supplemental lighting was provided with overhead metal halide 1000-Watt lamps as necessary. The plants were employed for testing when they reached the second or third true leaf stage.
(§2) A weighed amount, determined by the highest rate to be tested, of each test compound was placed in a 25 mL glass vial and was dissolved in 4 mL of a 97:3 v/v mixture of acetone and DMSO to obtain concentrated stock solutions. […] The concentrated stock solutions obtained were diluted with 20 mL of an aqueous mixture containing acetone, water, isopropyl alcohol, DMSO, Agri-Dex crop oil concentrate, and X-77 surfactant in a 48:39:10:1.5:1.5:0.02 v/v ratio to obtain spray solutions containing the highest application rates. Additional application rates were obtained by serial dilution of 12 mL of the high rate solution into a solution containing 2 mL of 97:3 v/v mixture of acetone and DMSO and 10 mL of an aqueous mixture containing acetone, water, isopropyl alcohol, DMSO, Agri-Dex crop oil concentrate, and X-77 surfactant in a 48:39:10:1.5:1.5:0.02 v/v ratio to obtain ½×, ¼×, ⅛× and 1/16× rates of the high rate. Compound requirements are based upon a 12 mL application volume at a rate of 187 liters per hectare (L/ha). Formulated compounds were applied to the plant material with an overhead Mandel track sprayer equipped with 8002E nozzles calibrated to deliver 187 L/ha over an application area of 0.503 square meters at a spray height of 18 inches (43 cm) above the average plant canopy height. Control plants were sprayed in the same manner with the solvent blank.
(§3) The treated plants and control plants were placed in a greenhouse as described above and watered by subirrigation to prevent wash-off of the test compounds. After 21 dAYS, the condition of the test plants as compared with that of the untreated plants was determined visually and scored on a scale of 0 to 100 percent where 0 corresponds to no injury and 100 corresponds to complete kill and presented as indicated in Table A.
(§4) By applying the well-accepted probit analysis as described by J. Berkson in Journal of the American Statistical Society, 48, 565 (1953) and by D. Finney in “Probit Analysis” Cambridge University Press (1952), herbicidal injury of a specific compound at various rates can be used to calculate GR10, GR20, GR50, GR80 and GR90 values, which are defined as growth reduction factors that correspond to the effective dose of herbicide required to provide plant growth reduction (GR) of 10 percent, 20 percent, 50 percent, 80 percent and 90 percent, respectively. Probit analysis was applied to data collected from multiple dose rates of individual compounds utilizing the procedures explained in the following examples. The analysis of those dose rates is captured in the following tables.

APESV (windgrass) = assay type: in vivo, Apera spica-venti; settings: for pest or weed control at 35 g/ha: 35 g ai/ha; for pest or weed control at 70 g/ha: 70 g ai/ha; for GR50, APESV: effective dose for growth reduction of 50 percent; for GR50, APESV / GR80, APESV: probit analysis; for GR80, APESV: effective dose for growth reduction of 80 percent
Experimental: as §1, §2, §3, §4

KCHSC (kochia) = assay type: in vivo, Kochia scoparia; settings: for pest or weed control at 35 g/ha: 35 g ai/ha; for pest or weed control at 70 g/ha: 70 g ai/ha; for GR50, KCHSC: effective dose for growth reduction of 50 percent; for GR50, KCHSC / GR80, KCHSC: probit analysis; for GR80, KCHSC: effective dose for growth reduction of 80 percent
Experimental: as §1, §2, §3, §4

SETVI (green foxtail) = assay type: in vivo, Setaria viridis; settings: for pest or weed control at 35 g/ha: 35 g ai/ha; for pest or weed control at 70 g/ha: 70 g ai/ha; for GR50, SETVI: effective dose for growth reduction of 50 percent; for GR50, SETVI / GR80, SETVI: probit analysis; for GR80, SETVI: effective dose for growth reduction of 80 percent
Experimental: as §1, §2, §3, §4

HORSS = assay type: in vivo; settings: for pest or weed control at 35 g/ha: 35 g ai/ha; for pest or weed control at 70 g/ha: 70 g ai/ha; for GR20, HORSS: effective dose for growth reduction of 20 percent, probit analysis
Experimental: as §1, §2, §3, §4

TRZSS = assay type: in vivo; settings: for pest or weed control at 35 g/ha: 35 g ai/ha; for pest or weed control at 70 g/ha: 70 g ai/ha; for GR20, TRZSS: effective dose for growth reduction of 20 percent, probit analysis
Experimental: as §1, §2, §3, §4

[1] = Alopecurus myosuroides, post-emergence, 504 h, postemergence, read-out: Visual Growth Reduction (%) 21 Days After Application, ALOMY
[2] = Apera spica-venti, post-emergence, 504 h, postemergence, read-out: Visual Growth Reduction (%) 21 Days After Application, APESV
[3] = Bassia scoparia, post-emergence, 504 h, postemergence, read-out: Visual Growth Reduction (%) 21 Days After Application, KCHSC
[4] = Setaria viridis, post-emergence, 504 h, postemergence, read-out: Visual Growth Reduction (%) 21 Days After Application, SETVI
[5] = Hordeum vulgare, post-emergence, 504 h, postemergence, read-out: Visual Growth Reduction (%) 21 Days After Application, HORSS
[6] = Triticum aestivum, post-emergence, 504 h, postemergence, read-out: Visual Growth Reduction (%) 21 Days After Application, TRZSS

Compound `COC(=O)c1nc(-c2ccc(OC(F)F)nc2)c(F)c(N)c1Cl` [Compound 71] has a pest or weed control at 35 g/ha (ALOMY (blackgrass); [1]) of 0 to 29%, a pest or weed control at 70 g/ha (ALOMY (blackgrass); [1]) of 0 to 29% and a pest or weed control at 140 g/ha (ALOMY (blackgrass); Alopecurus myosuroides, post-emergence, 504 h, 140 g ai/ha, postemergence, read-out: Visual Growth Reduction (%) 21 Days After Application, ALOMY) of 30 to 44%. The “GR50, ALOMY” value (ALOMY (blackgrass)) was >140 g ai/ha, the “GR80, ALOMY” value (ALOMY (blackgrass)) was >140 g ai/ha and the pest or weed control at 35 g/ha (APESV (windgrass); [2]) was 0 to 29%. The pest or weed control at 70 g/ha (APESV (windgrass); [2]) was 0 to 29%, the pest or weed control at 140 g/ha (APESV (windgrass); Apera spica-venti, post-emergence, 504 h, 140 g ai/ha, postemergence, read-out: Visual Growth Reduction (%) 21 Days After Application, APESV) was 30 to 44% and the “GR50, APESV” value (APESV (windgrass)) was >140 g ai/ha. For the same compound, the “GR80, APESV” value (APESV (windgrass)) was >140 g ai/ha, the pest or weed control at 35 g/ha (KCHSC (kochia); [3]) was 0 to 29% and the pest or weed control at 70 g/ha (KCHSC (kochia); [3]) was 60 to 74%. For the same compound, the pest or weed control at 140 g/ha (KCHSC (kochia); Bassia scoparia, post-emergence, 504 h, 140 g ai/ha, postemergence, read-out: Visual Growth Reduction (%) 21 Days After Application, KCHSC) was 60 to 74%, the “GR50, KCHSC” value (KCHSC (kochia)) was 80 g ai/ha and the “GR80, KCHSC” value (KCHSC (kochia)) was >140 g ai/ha. For the same compound, the pest or weed control at 35 g/ha (SETVI (green foxtail); [4]) was 30 to 44%, the pest or weed control at 70 g/ha (SETVI (green foxtail); [4]) was 45 to 59% and the pest or weed control at 140 g/ha (SETVI (green foxtail); Setaria viridis, post-emergence, 504 h, 140 g ai/ha, postemergence, read-out: Visual Growth Reduction (%) 21 Days After Application, SETVI) was 75 to 84%. The “GR50, SETVI” value (SETVI (green foxtail)) was 72 g ai/ha, the “GR80, SETVI” value (SETVI (green foxtail)) was >140 g ai/ha and the pest or weed control at 35 g/ha (HORSS; [5]) was 30 to 44%. The pest or weed control at 70 g/ha (HORSS; [5]) was 60 to 74%, the pest or weed control at 140 g/ha (HORSS; Hordeum vulgare, post-emergence, 504 h, 140 g ai/ha, postemergence, read-out: Visual Growth Reduction (%) 21 Days After Application, HORSS) was 75 to 84% and the “GR20, HORSS” value (HORSS) was 26 g ai/ha. The pest or weed control at 35 g/ha (TRZSS; [6]) was 60 to 74%, the pest or weed control at 70 g/ha (TRZSS; [6]) was 75 to 84% and the pest or weed control at 140 g/ha (TRZSS; Triticum aestivum, post-emergence, 504 h, 140 g ai/ha, postemergence, read-out: Visual Growth Reduction (%) 21 Days After Application, TRZSS) was 85 to 94%. The “GR20, TRZSS” value (TRZSS) was 16 g ai/ha.

For `COC(=O)c1nc(-c2ccc(C(F)(F)F)nc2)c(Cl)c(N)c1Cl` [Compound 83], the pest or weed control at 35 g/ha (ALOMY (blackgrass); [1]) was 60 to 74%, the pest or weed control at 70 g/ha (ALOMY (blackgrass); [1]) was 75 to 84% and the “GR50, ALOMY” value (ALOMY (blackgrass)) was 25 g ai/ha. The “GR80, ALOMY” value (ALOMY (blackgrass)) was 58 g ai/ha, the pest or weed control at 35 g/ha (APESV (windgrass); [2]) was 30 to 44% and the pest or weed control at 70 g/ha (APESV (windgrass); [2]) was 30 to 44%. For the same compound, the “GR50, APESV” value (APESV (windgrass)) was 89 g ai/ha, the “GR80, APESV” value (APESV (windgrass)) was >140 g ai/ha and the pest or weed control at 35 g/ha (KCHSC (kochia); [3]) was 0 to 29%. For the same compound, the pest or weed control at 70 g/ha (KCHSC (kochia); [3]) was 30 to 44%, the “GR50, KCHSC” value (KCHSC (kochia)) was 113 g ai/ha and the “GR80, KCHSC” value (KCHSC (kochia)) was >140 g ai/ha. For the same compound, the pest or weed control at 35 g/ha (SETVI (green foxtail); [4]) was 0 to 29%, the pest or weed control at 70 g/ha (SETVI (green foxtail); [4]) was 60 to 74% and the “GR50, SETVI” value (SETVI (green foxtail)) was 63 g ai/ha. For the same compound, the “GR80, SETVI” value (SETVI (green foxtail)) was 139 g ai/ha, the pest or weed control at 35 g/ha (HORSS; [5]) was 75 to 84% and the pest or weed control at 70 g/ha (HORSS; [5]) was 85 to 94%. For the same compound, the “GR20, HORSS” value (HORSS) was 3 g ai/ha, the pest or weed control at 35 g/ha (TRZSS; [6]) was 60 to 74% and the pest or weed control at 70 g/ha (TRZSS; [6]) was 75 to 84%. For the same compound, the “GR20, TRZSS” value (TRZSS) was 4 g ai/ha.
